Four compounds from paper PMC12728982, “Multichiral Half-Sandwich Ru(II) and Os(II) Anticancer Complexes Containing a Glutathione Synthesis Inhibitor” (Organometallics, 2025) can be followed below.

Bounds are passed on as bounds.

In data set [1] the test system is IGROV-1 human ovarian cancer cells. Briefly: Cell cycle arrest by flow cytometry (PI). The note with it: 24 h treatment; for Progression to G2/M: IGROV-1, 50 or 100 μM. Format: cell-based. The protocol:
2 Effect of Os/Ru-LBSO and glycine complexes at 50 or 100 μM on the phases of the cell cycle of IGROV-1 human ovarian cancer cells compared with untreated (control) cells. Percentage of cells in G1 (black bar, cell growth), S (gray, DNA synthesis), G2/M, (white, growth/mitosis) as determined by flow cytometry after 24 h treatment with complexes. […] Standard deviations calculated for N = 3 *p-value <0.05 comparing to untreated sample.
(§1) 2.8 Mammalian cell culture
The human ovarian cancer cell line, IGROV-1; the human cervical cancer cell line, HeLa; the human […]; and the human non-cancerous lung fibroblast cell line, MRC5 were cultured in DMEM supplemented with 10% FBS and 100 units/mL of penicillin and 100 µg/mL of streptomycin (1x pen/strep). All cell lines were incubated at 310 K with 5% CO2 and 95% humidity for routine maintenance and during drug treatment. […]
IGROV-1 cells (1 x 10^6 cells per well) were seeded in a 6-well plate and incubated for 24 h at 310 K. Stock solutions (200 µM) of the complexes were prepared by dissolving the compound in 5% (v/v) DMSO followed by dilution with DMEM and then diluted to desired concentrations. All complexes (50 µM and 100 µM) were added to the wells and incubated for 24 h. Cell pellets were collected using 0.25% trypsin and centrifuged (500 x g, 5 mins at 4 °C). Then washed in PBS and fixed with 100% ice-cold ethanol for 20 min on ice. The ethanol […]
was aspirated, cells washed in ice-cold PBS and then stained with 0.2 mg/mL RNase, 0.05 mg/mL propidium iodide (PI) in PBS for 25 min in the dark and on ice. Excess dye was removed, and cells were re-suspended in PBS. Samples were analysed by flow cytometry using the BD
For orientation: In flow cytometry, cells or beads pass a laser one at a time.

The subject of data set [2] is IGROV-1 cells. Briefly: Comet assay (DNA damage in single cells). Format: cell-based, human. Particulars: IGROV-1, 24 h; 100 μM for Cisplatin and Os-Gly. The method, then: Comet assays were carried out to determine whether the complexes caused DNA damage in single cells. […] Cisplatin DNA-adducts have been shown previously to inhibit DNA migration through electrophoresis presenting as less tail movement. […] Excess dye was removed, and cells were re-suspended in PBS. Samples were analysed by flow cytometry using the BD FACSMelodyTM Cell Sorter (R653880001) and data analysis on FlowJoTM v10 Software (BD Life Sciences).9 2.11 Apoptosis IGROV-1 cells (1 x 106) were seeded in a 6-well plate and incubated for 24 h at 310 K. Stock solutions (200 μM) of the complexes were prepared by dissolving the compound in 5% (v/v) DMSO followed by dilution with DMEM and then diluted to desired concentrations. All complexes (50 μM and 100 μM) were added to the wells and incubated for 24 h. Cell pellets were collected using 0.25% trypsin and centrifuged (500 x g, 5 mins at 277 K). Cell pellets were washed with PBS and then stained with the commercial Apoptosis Detection Kit-FITC Annexin V and PI (BioLegend; San Diego, USA), as per manufacturer's instructions. Briefly, a staining solution of FITC Annexin V (1 unit/100 μL) diluted 1 in 100 and 1 μg/mL PI was added to the cells (30 min, room temperature). Excess dye was removed, and cells were re-suspended in PBS. Samples were analysed by flow cytometry using the BD FACSMelodyTM Cell Sorter (R653880001) and data analysis on FlowJoTM v10 Software (BD Life Sciences).9 2.12 Comet assay IGROV-1 cells (8×10^5 cells per well) were seeded into 6-well plates and incubated for 24 h. Test compounds (50 μM and 100 μM) were added to the wells and incubated at 3 10 K for 24 h. Cells were enzymatically detached using trypsin and cell concentration adjusted to 2×10^4 cells /mL in ice-cold PBS. 0.4 mL of cell suspension was added to 1.2 mL of 1% low melting point agarose in H 2O, then immediately added to microscope slides pre -coated in 1% agarose. […] Twenty comet images per sample were taken by confocal microscopy and analysed by OpenComet. […]

The subject of data set [3] is A549 lung carcinoma cells. Kind of data set: Antiproliferative activity, SRB assay. Format: cell-based, human. The note with it: A549; SRB assay, 24 h treatment, 72 h recovery. The protocol: (§2) The antiproliferative activity against human A549 lung, IGROV-1 ovarian, and HeLa cervical cancer cell lines and MRC5 normal lung fibroblasts was determined by the sulforhodamine B (SRB) assay. […] IGROV-1 is known to be cisplatin-sensitive and subject to hypermutation.
as §1
(§3) The human ovarian cancer cell line, IGROV-1; the human cervical cancer cell line, HeLa; the human […]; and the human non-cancerous lung fibroblast cell line, MRC5 were cultured in DMEM supplemented with 10% FBS and 100 units/mL of penicillin and 100 µg/mL of streptomycin (1x pen/strep). All cell lines were incubated at 310 K with 5% CO2 and 95% humidity for routine maintenance and during drug treatment.
(§4) 2.9 Sulforhodamine (SRB) cytotoxicity assay
(§5) Cells were seeded at 5 × 10^3 cells per well and incubated at 310 K for 48 h. Stock solutions (200 µM) of the complexes were prepared by dissolving the compound in 5% (v/v) DMSO followed by dilution with DMEM and serial dilutions with DMEM were prepared (0.1 µM-200 The cells were exposed to the drug for 24 h. The drug was then removed, and cells were allowed to recover for 72 h, in drug-free media. Cell viability was then determined by the SRB colorimetric assay. The solubilised dye absorbance was analysed on a microplate reader (Thermo Scientific Multiskan FC with Scanit software 4.1) at 470 nm. Data were normalized using Microsoft Excel, and dose-response curves fitted using Origin 2016. The IC50 values
Background: Sulforhodamine B stains cellular protein and so reports cell mass.

For data set [4], the system named is IGROV-1 ovarian carcinoma cells. Kind of data set: Antiproliferative activity, SRB assay. Format: cell-based, human. Particulars: for IC50: IGROV-1, SRB assay, 24 h treatment, 72 h recovery. The protocol:
as §2, §1, §3, §4, §5

Data set [5] concerns MRC-5 normal lung fibroblasts. Briefly: Antiproliferative activity, SRB assay. Format: cell-based, human. The note with it: for IC50: MRC-5, SRB assay, 24 h treatment, 72 h recovery. The protocol: as §2, §1, §3, §4, §5
The test system of data set [6] is HeLa cervical adenocarcinoma cells. Briefly: Antiproliferative activity, SRB assay. The note with it: SRB assay, 24 h treatment, 72 h recovery. The class given is cell-based, human. The method, then: as §2, §1, §3, §4
as §5, with “µM-200 µM).” for “µM-200”

Data set [7] deals with intracellular GSH in IGROV-1 cells. Kind of data set: Glutathione colorimetric detection assay. The class given is cell-based, human. Particulars: IGROV-1, 50 μM, 24 h. The protocol:
This lowering was not observed for Ru-LBSO which is not active in this cell line. Other papers have shown a similar result by including L-BSO as an additional agent, therefore showing L-BSO remains inhibitory.
Once the agarose had set , the slides were submerged in alkaline lysis solution (1.3 M NaCl, 100 mM Na2EDTA, 0.1% sodium lauryl sarcosinate, 0.26 M NaOH pH > 13) and incubated overnight at 277 K in the dark. The following day the slides were rinsed for 20 min three times in the electrophoresis solution ([…] NaOH, 2mM Na 2EDTA pH 12.3). The slides were then placed into the electrophoresis tank with fresh electrophoresis buffer, 1 -2 mm above the slides. Electrophoresis was run at 18.3 V for 25 min. Once electrophoresis was complete, slides were rinsed in distilled water and placed in 2.5 µg/mL PI for 20 min. After staining, cells were rinsed in distilled water to remove excess stain. Twenty comet images per sample were taken by confocal microscopy and analysed by OpenComet. 10
1 x 10^6 IGROV-1 cells were seeded in a 6-well plate and incubated for 24 h at 310 K. All complexes (50 µM and 100 µM) were added to the wells and incubated for 24 h. […]
Percentage of IGROV -1 cancer cells in non -apoptotic, apoptotic (early and late) or necrotic phases determined by flow cytometry after 24 h treatment with Os/Ru L -BSO and glycine complexes. […] Standard deviations calculated for N=3. […]

Data set [8] in a line: Aqueous stability / hydrolysis monitored by 1H NMR. The class given is physicochemical. The note with it: 3:7 v/v methanol-d4:D2O, 310 K, 1H NMR.

One may read the IC50 as the concentration that inhibits the measured activity by half. As for `Cc1ccc(C(C)C)cc1.O=C1C[NH][Os]([Cl])[O]1` [Os-Gly, [(p-cymene)Os(Gly)Cl]], in data set [1], the “Progression to G2/M” value is recorded as “little progression to G2/M”. Also, the “Comet tails vs untreated cells” value in data set [2] was “statistically significantly shorter comet tails”. The IC50 was more than 200 µM in data set [3], more than 200 µM in data set [4], 107 ± 2 µM in data set [5] and more than 200 µM in data set [6].

Consider [(p-cymene)Ru(L-BSO)Cl] [Ru-LBSO], for which the “Lowering of intracellular GSH level” value in data set [7] is “not observed”. In data set [8], this compound yielded a Time to hydrolysis not above 15 min. Further, the “G1 arrest (percentage of cells in G1)” value in data set [1] (IGROV-1, 100 μM, vs untreated) is given as “significantly increased”. Also, the half-inhibitory concentration (IC50) in data set [3] was more than 200 µM; in data set [4] it was 108 ± 8 µM; in data set [5] it was 4.3 ± 0.7 µM; in data set [6] it was more than 200 µM. In addition, the “Activity against IGROV-1” value in data set [4] (IGROV-1, SRB) was “not active”. The “Activity toward normal lung cells” value in data set [5] (MRC-5, SRB) was “some activity”.

For `[NH2][Pt]([NH2])([Cl])[Cl]` [CDDP, Cisplatin, reference compound], the “Comet tails vs untreated cells” value in data set [2] was “statistically significantly shorter comet tails”. Also, the concentration for half-maximal inhibition (IC50) came out at 3 ± 0.2 µM in data set [3], 20 ± 4.8 µM in data set [4] and 13.5 ± 0.9 µM in data set [5].

For the compound `Cc1ccc(C(C)C)cc1.O=C1C[NH][Ru]([Cl])[O]1` [Ru-Gly, [(p-cymene)Ru(Gly)Cl]], the “Progression to G2/M” value in data set [1] was “little progression to G2/M”. Also, the IC50 was more than 200 µM in data set [3], more than 200 µM in data set [4], 112 ± 4 µM in data set [5] and more than 200 µM in data set [6].
